# Publication PMC6716783, “Agonist-induced membrane nanodomain clustering drives GLP-1 receptor responses in pancreatic beta cells” (PLoS Biology, 2019)
# Ends that are not written are not given here.
# Columns and labels:
# SNAP-GLP-1R [1] = assay: Palmitoylation assay, SNAP-GLP-1R; type: cell-based, human
# Description: For the detection of palmitoylated GLP-1Rs, cells were stimulated with 100 nM of the indicated agonist for 10 min and, when appropriate, pretreated with 10 μM BETP for 5 min (and throughout the agonist stimulation period) or overnight with 200 μM of the palmitoylation inhibitor 2-BP. Isolation of palmitoylated proteins was performed with the CAPTUREome S-Palmitoylated Protein Kit (Badrilla), following the manufacturer’s instructions. […] Key steps include blocking of free thiol groups with a blocking reagent, cleavage of thioester linkages to release the palmitate group, and capture of newly liberated thiols with the CAPTUREome capture resin. Briefly, cells were lysed and free thiols blocked in the manufacturer’s blocking buffer at 40 °C for 4 h with constant vortexing. Proteins were then precipitated with cold acetone for 20 min at −20 °C. Following centrifugation at 16,000g for 5 min, the pellet was extensively washed with 70% cold acetone and resuspended in the manufacturer’s binding buffer. Approximately 10% of the soluble lysate was saved as the input fraction (IF). Prewashed CAPTUREome capture resin was added to the lysates. To this mixture, either the thioester cleavage or the acyl-preservation reagents were added. Resins were washed five times with the manufacturer’s binding buffer. […]
# [2] = tested on: wt or C438A SNAP-GLP-1R in HEK293 cells; assay: Internalization of C438A versus wt SNAP-GLP-1R with BETP (confocal, DERET); type: cell-based, human; conditions: 100 nM exendin-phe1, 10 μM BETP
# GLP-1R [3] = conditions: cited from earlier work
# GLP-1R [4] = conditions: cited from earlier work; remark: listed apart in the source
# From the text: To further elucidate the mechanism by which BETP potentiates GLP-1R responses, we examined the relative contributions of GLP-1R palmitoylation, β-arrestins, and cholesterol-dependent membrane compartmentalization to its effect.
# [5] = tested on: cellular cholesterol in HEK293, CHO-K1, INS-1 832/3, MIN6B1 cells; assay: Cholesterol depletion (filipin / Amplex Red); type: cell-based; design: unit not given here
# Description: Cells were treated with or without MβCD as above. For cholesterol labeling, filipin staining was carried out with the Cell-Based Cholesterol Assay Kit (Abcam). For quantification of cholesterol levels, lipid was extracted using butanol as described. Briefly, the washed cell pellet was left in 250 μl butanol overnight at 4 °C, and the organic layer was aspirated, placed in a microplate, and allowed to evaporate to dryness. The lipid film was redissolved in 1% Triton X-100, and cholesterol concentration was determined using the Amplex Red Cholesterol Assay Kit (Thermo Fisher), followed by normalization to protein content of the cell pellet determined by BCA assay.
# [6] = tested on: human GLP-1R (SNAP-GLP-1R) in MIN6B1 cells; assay: SNAP-GLP-1R partitioning into detergent-resistant (raft) membrane fractions; type: cell-based; conditions: 2 min stimulation, versus vehicle
# [7] = tested on: SNAP-GIPR in CHO-K1 cells; conditions: 100 nM GIP, 10 min
# [8] = tested on: SNAP-GIPR in HEK293 cells; conditions: GIP 100 nM
# From the text: These concentrations were selected because they provided optimum signal intensity at both measurement wavelengths. […] TR-FRET was sequentially measured after agonist addition.
# [9] = target: T1, endogenous GLP-1R in INS-1 832/3 cells (Rattus norvegicus, UniProt P32301); assay: HTRF cAMP, wt INS-1 832/3 cells; type: cell-based; conditions: MβCD; wild-type INS-1 832/3 cells
# T1 construct: endogenous in cells
# T1 sequence (P32301 22-463): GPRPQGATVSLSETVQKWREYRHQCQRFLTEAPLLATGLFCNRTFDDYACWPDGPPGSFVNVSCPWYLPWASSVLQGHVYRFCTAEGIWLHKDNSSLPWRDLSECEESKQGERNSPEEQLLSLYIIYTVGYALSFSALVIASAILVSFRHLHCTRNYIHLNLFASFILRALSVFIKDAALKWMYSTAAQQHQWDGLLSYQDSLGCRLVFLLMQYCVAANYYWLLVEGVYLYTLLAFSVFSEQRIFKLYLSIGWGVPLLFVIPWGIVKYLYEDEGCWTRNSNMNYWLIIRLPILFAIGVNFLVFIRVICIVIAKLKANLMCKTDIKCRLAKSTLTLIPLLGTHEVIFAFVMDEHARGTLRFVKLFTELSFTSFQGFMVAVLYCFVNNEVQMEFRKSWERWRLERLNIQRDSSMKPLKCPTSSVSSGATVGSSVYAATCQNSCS
# Description: Cells were treated in white microplates with agonist, with or without isobutylmethylxanthine (IBMX) as indicated to inhibit phosphodiesterases, for the indicated period of time before total cellular cAMP determination by HTRF (Cisbio cAMP Dynamic 2).
# SNAP-GLP-1R [10] = assay: SNAP-GLP-1R internalization by confocal microscopy; type: cell-based, human
# [11] = tested on: SNAP-GLP-1R in HEK293 cells; assay: NR12S TR-FRET (liquid-ordered localization); type: cell-based, human; conditions: for concentration response with MβCD (sheet S2H): agonist not named
# [12] = tested on: SNAP-GIPR in INS-1 832/3 cells; assay: SNAP-GIPR internalization by confocal microscopy; type: cell-based; conditions: MβCD 10 mM 1 h; 100 nM GIP 1 h
# Description: For confocal microscopy, cells were labeled at 37 °C with 1 μM of the indicated SNAP-tag fluorescent probe (New England Biolabs) in full media, stimulated with agonists for the indicated times, fixed in 4% paraformaldehyde, mounted in Prolong Diamond antifade reagent with 4,6-diamidino-2-phenylindole (Life Technologies), imaged with a Zeiss LSM-780 inverted confocal laser-scanning microscope in a ×63/1.4 numerical aperture oil-immersion objective from the Facility for Imaging by Light Microscopy (FILM) at Imperial College London, and analyzed in Fiji. […] Images were acquired with an ORCA-Flash 4.0 camera (Hamamatsu) and Metamorph software (Molecular Devices), and colocalization was measured by Manders’ coefficient analyzed using Coloc 2 plugin in Fiji.
# [13] = tested on: SNAP-GLP-1R in HEK293 cells; assay: Surface SNAP-GLP-1R labeling by Lumi4-Tb; type: cell-based, human; conditions: MβCD treatment
compound,measurement,setting,value
"CC[S+]([O-])c1nc(-c2cccc(OCc3ccccc3)c2)cc(C(F)(F)F)n1 (centres unmarked) [BETP, 4-(3-benzyloxyphenyl)-2-ethylsulfinyl-6-(trifluoromethyl)pyrimidine]",effect on exendin-4-induced palmitoylation (in words),"SNAP-GLP-1R [1]; CHO SNAP-GLP-1R cells, BETP 10 μM, 100 nM exendin-4 10 min",significant reduction in exendin-4-induced palmitoylation
same,effect of BETP on internalization of C438A (in words),[2],comparable to that of wild-type receptors
same,potentiation of weak agonist GLP-1(9–36)NH2 (in words),GLP-1R [3],markedly augment responses
same,potentiation of weak agonist oxyntomodulin (in words),GLP-1R [3],markedly augment responses
same,covalent binding site (in words),GLP-1R [4],covalently bind two intracellular GLP-1R cysteine residues (347 and 438
CC(C)CCC[C@@H](C)[C@H]1CC[C@H]2[C@@H]3CC=C4C[C@@H](O)CC[C@]4(C)[C@H]3CC[C@]12C [Chol],cellular cholesterol,"[5]; CHO-K1, replicate 1",666.594
same,cellular cholesterol,"[5]; CHO-K1, replicate 2",793.376
same,cellular cholesterol,"[5]; CHO-K1, replicate 3",793.376
same,cellular cholesterol,"[5]; HEK293, replicate 1",549.236
same,cellular cholesterol,"[5]; HEK293, replicate 2",621.505
same,cellular cholesterol,"[5]; HEK293, replicate 3",643.5
same,cellular cholesterol,"[5]; INS-1 832/3, replicate 1",653.543
same,cellular cholesterol,"[5]; INS-1 832/3, replicate 2",706.063
same,cellular cholesterol,"[5]; INS-1 832/3, replicate 3",690.314
same,cellular cholesterol,"[5]; MIN6B1, replicate 1",989.644
same,cellular cholesterol,"[5]; MIN6B1, replicate 2",1174.28
same,cellular cholesterol,"[5]; MIN6B1, replicate 3",1186.59
CCCCCCCCCCCCCCCC(=O)O [palmitate],GLP-1R palmitoylation (in words),"SNAP-GLP-1R [1]; MIN6B1 SNAP-GLP-1R cells, excess palmitate (200 μM palmitate/BSA overnight)",greatly enhanced
"GLP-1(7–36)NH2: endogenous GLP-1R agonist (HAEGTFTSDVSSYLEGQAAKEFIAWLVKGR-NH2; UniProt P01275 98-127, looked up)",SNAP-GLP-1R raft recruitment (in words),[6],Increased enrichment of poly-glycosylated GLP-1Rs in membrane raft fractions
glucose-dependent insulinotropic polypeptide [GIP],GIPR palmitoylation (in words),[7],not further increased by GIP stimulation
same,SNAP-GIPR clustering (in words),[8],no detectable increase upon GIP addition
methyl-β-cyclodextrin [MβCD],effect on cAMP production (in words),[9],reduced by MβCD
same,effect on BETP-induced internalization of exendin-phe1-stimulated SNAP-GLP-1R (in words),"SNAP-GLP-1R [10]; MIN6B1, MβCD 10 mM 1 h preincubation",inhibited this process to the same extent as for exendin-4
same,effect on exendin-4-induced internalization (in words),"SNAP-GLP-1R [10]; MβCD 10 mM 1 h, 100 nM exendin-4, 15 min, beta and nonbeta cells",marked inhibition of exendin-4-induced SNAP-GLP-1R internalization
same,effect on SNAP-GLP-1R endocytosis (in words),"SNAP-GLP-1R [10]; MβCD, wt and β-arrestin-less HEK293, 100 nM exendin-4, 15 min",substantially inhibited by MβCD irrespective of β-arrestin status
same,effect on NR12S-linked TR-FRET (in words),"[11]; MβCD, S2H",effective in reducing both basal and exendin-4-induced NR12S-linked increases in TR-FRET
same,concentration response with MβCD (sheet S2H),"[11]; log conc -6, replicate 1",33.0955
same,concentration response with MβCD (sheet S2H),"[11]; log conc -6, replicate 2",36.4407
same,concentration response with MβCD (sheet S2H),"[11]; log conc -6, replicate 3",38.4994
same,concentration response with MβCD (sheet S2H),"[11]; log conc -6.47712, replicate 1",34.0966
same,concentration response with MβCD (sheet S2H),"[11]; log conc -6.47712, replicate 2",36.1901
same,concentration response with MβCD (sheet S2H),"[11]; log conc -6.47712, replicate 3",32.7645
same,concentration response with MβCD (sheet S2H),"[11]; log conc -6.95424, replicate 2",32.2917
same,concentration response with MβCD (sheet S2H),"[11]; log conc -6.95424, replicate 3",33.0671
same,concentration response with MβCD (sheet S2H),"[11]; log conc -7.43136, replicate 1",24.1893
same,concentration response with MβCD (sheet S2H),"[11]; log conc -7.43136, replicate 2",31.793
same,concentration response with MβCD (sheet S2H),"[11]; log conc -7.90849, replicate 2",35.2618
same,concentration response with MβCD (sheet S2H),"[11]; log conc -7.90849, replicate 3",26.4888
same,concentration response with MβCD (sheet S2H),"[11]; log conc -8.38561, replicate 3",33.8275
same,concentration response with MβCD (sheet S2H),"[11]; log conc -8.86273, replicate 1",30.8645
same,concentration response with MβCD (sheet S2H),"[11]; log conc -8.86273, replicate 2",27.0998
same,concentration response with MβCD (sheet S2H),"[11]; log conc -8.86273, replicate 3",36.96
same,concentration response with MβCD (sheet S2H),"[11]; log conc -10, replicate 1",23.1185
same,concentration response with MβCD (sheet S2H),"[11]; log conc -10, replicate 2",30.0361
same,concentration response with MβCD (sheet S2H),"[11]; log conc -10, replicate 3",37.2206
same,effect on GIPR endocytosis (in words),[12],virtually abolished after MβCD treatment
same,effect on surface SNAP-GLP-1R expression (in words),[13],did not alter receptor surface SNAP-GLP-1R expression
same,cellular cholesterol,"[5]; CHO-K1, replicate 1",39.7439
same,cellular cholesterol,"[5]; CHO-K1, replicate 2",158.5
same,cellular cholesterol,"[5]; CHO-K1, replicate 3",99.7412
same,cellular cholesterol,"[5]; HEK293, replicate 1",170.419
same,cellular cholesterol,"[5]; HEK293, replicate 2",186.214
same,cellular cholesterol,"[5]; HEK293, replicate 3",179.148
same,cellular cholesterol,"[5]; INS-1 832/3, replicate 1",159.866
same,cellular cholesterol,"[5]; INS-1 832/3, replicate 2",177.786
same,cellular cholesterol,"[5]; INS-1 832/3, replicate 3",167.411
same,cellular cholesterol,"[5]; MIN6B1, replicate 1",202.183
same,cellular cholesterol,"[5]; MIN6B1, replicate 2",224.442
same,cellular cholesterol,"[5]; MIN6B1, replicate 3",240.208
